Test results reported in US9499538B2, “Estrogen receptor modulators and uses thereof” (Seragon Pharmaceuticals, Inc., priority 2012, dated 2016).

Legend:
[1] = biological target: T1, ER-α in MCF-7 cells (Homo sapiens, UniProt P03372); assay: Breast Cancer Cell ER-α In Cell Western Assay (SP1); format: cell-based; details: 4 or 24 hr post compound addition; for Emax: MCF7, SP1 antibody, read-out: ER-α In Cell Western Assay (SP1) Max Response; for DC50: SP1 antibody, read-out: ER-α In Cell Western Assay (SP1) IC50
T1 construct: endogenous in cells; host or cells: MCF-7
T1 sequence (P03372 1-595): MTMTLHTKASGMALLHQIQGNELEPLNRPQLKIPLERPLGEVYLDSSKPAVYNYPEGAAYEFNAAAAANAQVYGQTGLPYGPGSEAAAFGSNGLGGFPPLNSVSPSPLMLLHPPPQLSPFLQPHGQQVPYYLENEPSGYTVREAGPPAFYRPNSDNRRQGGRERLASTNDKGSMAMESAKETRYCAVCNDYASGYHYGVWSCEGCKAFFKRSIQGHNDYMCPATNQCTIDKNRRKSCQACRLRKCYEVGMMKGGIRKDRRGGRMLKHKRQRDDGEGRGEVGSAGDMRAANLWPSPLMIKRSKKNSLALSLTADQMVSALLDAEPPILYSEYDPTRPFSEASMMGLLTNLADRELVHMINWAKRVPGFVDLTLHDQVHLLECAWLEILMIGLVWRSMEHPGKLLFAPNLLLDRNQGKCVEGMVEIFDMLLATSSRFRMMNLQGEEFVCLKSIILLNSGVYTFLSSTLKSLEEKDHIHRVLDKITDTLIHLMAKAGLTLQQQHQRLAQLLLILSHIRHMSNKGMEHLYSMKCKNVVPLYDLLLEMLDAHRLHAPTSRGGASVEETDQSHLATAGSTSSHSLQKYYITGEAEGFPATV
Procedure, shortened: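 MCF-7 cells in charcoal-stripped FBS medium, treated with 11-point semilog dilutions (0.3–0.000003 μM final) for 4 or 24 h. Fixed cells immunostained with SP1 antibody (800 nm) and DRAQ5 DNA (700 nm); ER/DNA ratio expressed as % of untreated cells.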

[2] = system: MCF-7 cells; assay: Breast Cancer Cell Viability Assays (MCF-7, CellTiter-Glo); format: cell-based; details: 5 days' compound exposure; for IC50: Homo sapiens, MCF7, 120 h
Procedure, shortened: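 MCF-7 cells (320/well, RPMI with 10% FBS) exposed for 5 days to an eleven-point semilog series, 0.3–0.000003 μM final. Viability read by CellTiter-Glo luminescence, expressed as background-corrected percent of untreated cells.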

Compound | Emax [1] [%] | DC50 [1] [nM] | MCF7 Viability Assay Max Response [2] | IC50 [2] [nM]
CC/C(=C(/c1ccc(/C=C/C(=O)O)cc1)c1cccc2[nH]nc(F)c12)c1cnc(OC)cc1C [Example 139, (E)-3-(4-((E)-1-(3-Fluoro-1H-indazol-4-yl)-2-(6-methoxy-4-methylpyridin-3-yl)but-1-en-1-yl)phenyl)acrylic acid] | ≥ 40 | ≤ 100 | ++ (++ = a single % value ≧ 40%) | ≤ 100
O=C(O)/C=C/c1ccc(/C(=C(\c2ccc(F)cc2Cl)C2CCC2)c2ccc3[nH]nc(F)c3c2)cn1 [Example 168, (E)-3-(5-((Z)-2-(2-Chloro-4-fluorophenyl)-2-cyclobutyl-1-(3-fluoro-1H-indazol-5-yl)vinyl)pyridin-2-yl)acrylic acid] | ≥ 40 | ≤ 100 | ++ (++ = a single % value ≧ 40%) | ≤ 100
COc1cccc(/C(=C(\c2ccc(/C=C/C(=O)O)cc2)c2ccc3[nH]nc(F)c3c2)C2CC2)c1 [Example 31, (E)-3-(4-((E)-2-Cyclopropyl-1-(3-fluoro-1H-indazol-5-yl)-2-(3-methoxyphenyl)vinyl)phenyl)acrylic acid] | ≥ 40 | ≤ 100 | ++ (++ = a single % value ≧ 40%) | ≤ 100
Cc1cc(C#N)ccc1/C(=C(\c1ccc(/C=C/C(=O)O)cc1)c1ccc2scnc2c1)C1CCC1 [Example 96, (E)-3-(4-((E)-1-(Benzo[d]thiazol-5-yl)-2-(4-cyano-2-methylphenyl)-2-cyclobutylvinyl)phenyl)acrylic acid] | ≥ 40 | ≤ 100 | ++ (++ = a single % value ≧ 40%) | ≤ 100
N#Cc1cc(F)ccc1/C(=C(\c1ccc(/C=C/C(=O)O)cc1)c1ccc2[nH]ncc2c1F)C1CCC1 [Example 66, (E)-3-(4-((E)-2-(2-Cyano-4-fluorophenyl)-2-cyclobutyl-1-(4-fluoro-1H-indazol-5-yl)vinyl)phenyl)acrylic acid] | ≥ 40 | ≤ 100 | ++ (++ = a single % value ≧ 40%) | ≤ 100
O=C(O)/C=C/c1ccc(/C(=C(\c2ccc(CO)cc2Cl)C2CCC2)c2ccc3scnc3c2)cc1 [Example 233, (E)-3-(4-((E)-1-(Benzo[d]thiazol-5-yl)-2-(2-chloro-4-(hydroxymethyl)phenyl)-2-cyclobutylvinyl)phenyl)acrylic acid] | ≥ 40 | ≤ 100 | ++ (++ = a single % value ≧ 40%) | ≤ 100
O=C(O)/C=C/c1ccc(/C(=C(\c2ccccc2F)C2CCC2)c2ccc3scnc3c2)cc1 [Example 94, (E)-3-(4-((E)-1-(Benzo[d]thiazol-5-yl)-2-cyclobutyl-2-(2-fluorophenyl)vinyl)phenyl)acrylic acid] | ≥ 40 | ≤ 100 | ++ (++ = a single % value ≧ 40%) | ≤ 100
Fc1n[nH]c2ccc(/C(=C(/c3ccccc3)C3CCC3)c3ccc(/C=C/c4nnn[nH]4)cc3)cc12 [Example 174, 5-((E)-1-(4-((E)-2-(1H-Tetrazol-5-yl)vinyl)phenyl)-2-cyclobutyl-2-phenylvinyl)-3-fluoro-1H-indazole] | ≥ 40 | ≤ 100 | ++ (++ = a single % value ≧ 40%) | ≤ 100
N#Cc1cscc1/C(=C(\c1ccc(/C=C/C(=O)O)cc1)c1ccc2scnc2c1)C1CCC1 [Example 88, (E)-3-(4-((E)-1-(Benzo[d]thiazol-5-yl)-2-(4-cyanothiophen-3-yl)-2-cyclobutylvinyl)phenyl)acrylic acid] | ≥ 40 | ≤ 100 | ++ (++ = a single % value ≧ 40%) | ≤ 100
CC/C(=C(/c1ccc(/C=C/C(=O)O)cc1)c1ccc2[nH]nc(F)c2c1)c1ncccc1Cl [Example 262, (E)-3-(4-((E)-2-(3-Chloropyridin-2-yl)-1-(3-fluoro-1H-indazol-5-yl)but-1-en-1-yl)phenyl)acrylic acid] | ≥ 40 | ≤ 100 | ++ (++ = a single % value ≧ 40%) | ≤ 100
